Measured values from PubChem BioAssay AID248 (DTP/NCI, 2004).
Where “and” joins values, the source holds several entries; their conditions need not be identical. Equal entries are not always repeated. Toxic doses and inconclusive results are not listed. No stated cut-off is given here; in the data, active means T/C of 150% or more; inactive means T/C below 125%.

Test system: L1210 leukemia ip in BDF1 mice, survival T/C
Assay: NCI In Vivo Anticancer Drug Screen. Data for tumor model L1210 Leukemia (intraperitoneal) in B6D2F1 (BDF1) mice
Settings: endpoint: mean survival time, higher = longer survival
Procedure, shortened: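 Antitumor effect is assessed in tumor-bearing animals. Survival in the compound arm is compared with a vehicle-dosed control arm and expressed as their quotient.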

[1] = dose: 100.0 mg/kg/injection, schedule: Q01DX001 (ip), vehicle: saline
[2] = dose: 200.0 mg/kg/injection, schedule: Q01DX001 (ip), vehicle: saline

Measured: T/C

C/C(=N/NC(N)=O)C1CC2CCC1C2 (stereo unspecified)
inactive: [1] 98 % of control | dose: 100.0 mg/kg/injection, schedule: Q01DX009 (ip), vehicle: gum acacia 102 % of control | dose: 100.0 mg/kg/injection, schedule: Q04DX003 (ip), vehicle: gum acacia 93 % of control | [2] 101 % of control | dose: 200.0 mg/kg/injection, schedule: Q01DX009 (ip), vehicle: gum acacia 94 % of control | dose: 200.0 mg/kg/injection, schedule: Q04DX003 (ip), vehicle: gum acacia 95 % of control | dose: 400.0 mg/kg/injection, schedule: Q04DX003 (ip), vehicle: gum acacia 90 % of control

Cc1nnc(NS(=O)(=O)c2ccc(N=Nc3cc(N=Nc4ccccc4)c(N)nc3N)cc2)s1
inactive: dose: 100.0 mg/kg/injection, schedule: Q01DX001 (ip), vehicle: carboxymethylcellulose (CMC) 87 % of control | dose: 200.0 mg/kg/injection, schedule: Q01DX001 (ip), vehicle: carboxymethylcellulose (CMC) 89 % of control | dose: 400.0 mg/kg/injection, schedule: Q01DX001 (ip), vehicle: carboxymethylcellulose (CMC) 97 % of control

O=C1C2=C(C(=O)c3ccccc31)C(=O)C1CC=CCC1C2=O (stereo unspecified)
inactive: dose: 0.25 mg/kg/injection, schedule: Q04DX003 (ip), vehicle: saline with Tween-80 102 % of control | dose: 0.5 mg/kg/injection, schedule: Q04DX003 (ip), vehicle: saline with Tween-80 104 % of control | dose: 1.0 mg/kg/injection, schedule: Q04DX003 (ip), vehicle: saline with Tween-80 98 % of control | dose: 2.0 mg/kg/injection, schedule: Q04DX003 (ip), vehicle: saline with Tween-80 96 % of control | dose: 4.0 mg/kg/injection, schedule: Q04DX003 (ip), vehicle: saline with Tween-80 110 % of control | dose: 8.0 mg/kg/injection, schedule: Q04DX003 (ip), vehicle: saline with Tween-80 100 % of control and 105 % of control | dose: 16.0 mg/kg/injection, schedule: Q04DX003 (ip), vehicle: saline with Tween-80 102 % of control and 103 % of control | dose: 25.0 mg/kg/injection, schedule: Q01DX009 (ip), vehicle: saline with Tween-80 106 % of control | dose: 32.0 mg/kg/injection, schedule: Q04DX003 (ip), vehicle: saline with Tween-80 103 % of control | dose: 50.0 mg/kg/injection, schedule: Q01DX009 (ip), vehicle: saline with Tween-80 106 % of control | dose: 64.0 mg/kg/injection, schedule: Q04DX003 (ip), vehicle: saline with Tween-80 97 % of control and 105 % of control | dose: 100.0 mg/kg/injection, schedule: Q01DX009 (ip), vehicle: saline with Tween-80 110 % of control | dose: 128.0 mg/kg/injection, schedule: Q04DX003 (ip), vehicle: saline with Tween-80 105 % of control | dose: 200.0 mg/kg/injection, schedule: Q01DX009 (ip), vehicle: saline with Tween-80 101 % of control | dose: 256.0 mg/kg/injection, schedule: Q04DX003 (ip), vehicle: saline with Tween-80 94 % of control

CN(C)CC/C=C1\c2ccccc2Sc2ccc(Cl)cc21
inactive: dose: 0.04 mg/kg/injection, schedule: Q03HX024 (ip), vehicle: saline 107 % of control | dose: 0.09 mg/kg/injection, schedule: Q03HX024 (ip), vehicle: saline 105 % of control | dose: 0.18 mg/kg/injection, schedule: Q03HX024 (ip), vehicle: saline 102 % of control | dose: 0.36 mg/kg/injection, schedule: Q01DX001 (ip), vehicle: Klucel (hydroxypropylcellulose) (HPC) 102 % of control | dose: 0.37 mg/kg/injection, schedule: Q03HX024 (ip), vehicle: saline 105 % of control | dose: 0.73 mg/kg/injection, schedule: Q01DX001 (ip), vehicle: Klucel (hydroxypropylcellulose) (HPC) 97 % of control | dose: 0.74 mg/kg/injection, schedule: Q03HX024 (ip), vehicle: saline 107 % of control | dose: 1.46 mg/kg/injection, schedule: Q01DX001 (ip), vehicle: Klucel (hydroxypropylcellulose) (HPC) 108 % of control | dose: 1.49 mg/kg/injection, schedule: Q03HX024 (ip), vehicle: Klucel (hydroxypropylcellulose) (HPC) 103 % of control | dose: 2.92 mg/kg/injection, schedule: Q01DX001 (ip), vehicle: Klucel (hydroxypropylcellulose) (HPC) 105 % of control | dose: 3.8 mg/kg/injection, schedule: Q01DX001 (ip), vehicle: Klucel (hydroxypropylcellulose) (HPC) 107 % of control | dose: 3.9 mg/kg/injection, schedule: Q01DX009 (ip), vehicle: Klucel (hydroxypropylcellulose) (HPC) 105 % of control | dose: 5.6 mg/kg/injection, schedule: Q01DX001 (ip), vehicle: saline 101 % of control | dose: 5.85 mg/kg/injection, schedule: Q01DX001 (ip), vehicle: Klucel (hydroxypropylcellulose) (HPC) 105 % of control | dose: 7.5 mg/kg/injection, schedule: Q01DX001 (ip), vehicle: Klucel (hydroxypropylcellulose) (HPC) 104 % of control | dose: 7.81 mg/kg/injection, schedule: Q01DX009 (ip), vehicle: Klucel (hydroxypropylcellulose) (HPC) 92 % of control | dose: 11.25 mg/kg/injection, schedule: Q01DX001 (ip), vehicle: saline 104 % of control | dose: 15.0 mg/kg/injection, schedule: Q01DX001 (ip), vehicle: Klucel (hydroxypropylcellulose) (HPC) 107 % of control | dose: 15.62 mg/kg/injection, schedule: Q01DX009 (ip), vehicle: Klucel (hydroxypropylcellulose) (HPC) 110 % of control | dose: 22.5 mg/kg/injection, schedule: Q01DX001 (ip), vehicle: saline 101 % of control | dose: 23.43 mg/kg/injection, schedule: Q01DX001 (ip), vehicle: Klucel (hydroxypropylcellulose) (HPC) 121 % of control | dose: 30.0 mg/kg/injection, schedule: Q01DX001 (ip), vehicle: Klucel (hydroxypropylcellulose) (HPC) 112 % of control | dose: 31.25 mg/kg/injection, schedule: Q01DX009 (ip), vehicle: Klucel (hydroxypropylcellulose) (HPC) 108 % of control | dose: 31.25 mg/kg/injection, schedule: Q04DX003 (ip), vehicle: Klucel (hydroxypropylcellulose) (HPC) 107 % of control

N#CCCOP(=O)(O)O
inactive: dose: 100.0 mg/kg/injection, schedule: Q01DX001 (ip), vehicle: Klucel (hydroxypropylcellulose) (HPC) 101 % of control | dose: 200.0 mg/kg/injection, schedule: Q01DX001 (ip), vehicle: Klucel (hydroxypropylcellulose) (HPC) 98 % of control | dose: 400.0 mg/kg/injection, schedule: Q01DX001 (ip), vehicle: Klucel (hydroxypropylcellulose) (HPC) 88 % of control

COc1ccccc1C1N(C)CCCN1C
inactive: dose: 6.25 mg/kg/injection, schedule: Q04DX003 (ip), vehicle: saline 96 % of control | dose: 12.5 mg/kg/injection, schedule: Q04DX003 (ip), vehicle: saline 92 % of control | dose: 25.0 mg/kg/injection, schedule: Q04DX003 (ip), vehicle: saline 101 % of control

CCCCCCCCCCCCCCCCC[As](=O)(O)CCCCCCCCCCCCCCCCC
inactive: dose: 50.0 mg/kg/injection, schedule: Q01DX001 (ip), vehicle: saline 101 % of control | [1] 95 % of control | [2] 89 % of control | dose: 400.0 mg/kg/injection, schedule: Q01DX001 (ip), vehicle: saline 97 % of control

Cc1cc(=O)cc(Nc2ccccc2)o1
inactive: dose: 100.0 mg/kg/injection, schedule: Q04DX002 (ip), vehicle: Klucel (hydroxypropylcellulose) (HPC) 93 % of control | dose: 200.0 mg/kg/injection, schedule: Q04DX002 (ip), vehicle: Klucel (hydroxypropylcellulose) (HPC) 90 % of control | dose: 400.0 mg/kg/injection, schedule: Q04DX002 (ip), vehicle: Klucel (hydroxypropylcellulose) (HPC) 101 % of control

O/N=C1\CCn2cccc21
inactive: dose: 100.0 mg/kg/injection, schedule: Q04DX003 (ip), vehicle: saline with Tween-80 91 % of control | dose: 200.0 mg/kg/injection, schedule: Q04DX003 (ip), vehicle: saline with Tween-80 91 % of control | dose: 400.0 mg/kg/injection, schedule: Q04DX003 (ip), vehicle: saline with Tween-80 87 % of control

Nc1nc(=O)[nH]c(N)c1N
inactive: dose: 50.0 mg/kg/injection, schedule: Q04DX003 (ip), vehicle: saline 91 % of control | [1] 98 % of control | dose: 100.0 mg/kg/injection, schedule: Q04DX003 (ip), vehicle: saline 91 % of control | [2] 114 % of control | dose: 200.0 mg/kg/injection, schedule: Q04DX003 (ip), vehicle: saline 88 % of control

CC(C)P(=S)(OCc1ccccc1)C(C)C
inactive: dose: 100.0 mg/kg/injection, schedule: Q01DX001 (ip), vehicle: saline with Tween-80 99 % of control | dose: 200.0 mg/kg/injection, schedule: Q01DX001 (ip), vehicle: saline with Tween-80 98 % of control | dose: 400.0 mg/kg/injection, schedule: Q01DX001 (ip), vehicle: saline with Tween-80 105 % of control

COC(=O)C1=C(NC(=O)Nc2ccc([N+](=O)[O-])cc2)OC(C)(C)C1c1ccc(Cl)cc1 (stereo unspecified)
inactive: dose: 100.0 mg/kg/injection, schedule: Q04DX003 (ip), vehicle: acetone 92 % of control | dose: 200.0 mg/kg/injection, schedule: Q04DX003 (ip), vehicle: acetone 97 % of control | dose: 400.0 mg/kg/injection, schedule: Q04DX003 (ip), vehicle: acetone 97 % of control
